Reference: article PMC9413568, “Application of COSMO-RS-DARE as a Tool for Testing Consistency of Solubility Data: Case of Coumarin in Neat Alcohols” (Molecules, 2022)

What was measured:
[1] = shake-flask solubility of coumarin in neat alcohols, spectrophotometric determination; format: physicochemical; settings: mean ± SD, n = 3
Experimental: This solution was then successfully diluted by transferring its fixed amounts to 10 mL volumetric flasks and adding methanol. The obtained series of solutions with decreasing coumarin concentrations was measured spectrophotometrically, and the absorbance values found at 310 nm wavelength were plotted against the corresponding concentration values. Three separate curves were prepared and then averaged, with the resulting linear equation being y = 42.346x + 0.0085. The curve can be characterized by high linearity, with the determination coefficient of R^2 = 0.9997. […] In this study, the shake-flask-type method of solubility determination was used. […] The prepared samples were incubated for 24 h at four different temperatures (25-40 °C with 5 °C intervals) using an ES-20/60 Orbital Shaker Incubator supplied by Biosan (Riga, Latvia). The temperature adjustment accuracy was 0.1 °C, and its variance during the daily cycle was ±0.5 °C. Moreover, the mixing of the samples at 60 rev/min was provided by the incubator. In the next step, the samples were filtered using a syringe with a PTFE filter with a […] pore size. All of the test tubes, syringes, and filters were preheated to the appropriate temperature to avoid the precipitation of dissolved coumarin. Finally, fixed amounts of the filtrate were transferred to test tubes, which were prefilled with a set amount of methanol, and samples prepared in this way were measured spectrophotometrically. The concentration of coumarin in the samples was determined through spectrophotometric measurements using an […] spectrophotometer from AOE Instruments (Shanghai, China). Spectra in the 190-700 nm wavelength range were recorded with a 1 nm resolution, and samples were diluted with methanol, which was also used as a reference. The absorbance values at 310 nm were used in conjunction with the calibration curve prepared earlier. Three samples were measured for each data point, and their concentrations were averaged and expressed as mole fractions.

[2] = set-up: method as in PMID 18583357; settings: dependence on pH; cited from earlier work

solubility expressed as molar fraction ([1]; 1-butanol, 25 °C): 16.95 ± 1.09 molar fraction ×10^3 | solubility expressed as molar fraction ([1]; 1-butanol, 30 °C): 34.87 ± 1.34 molar fraction ×10^3 | solubility expressed as molar fraction ([1]; 1-butanol, 35 °C): 60.64 ± 0.77 molar fraction ×10^3 | solubility expressed as molar fraction ([1]; 1-butanol, 40 °C): 94.59 ± 2.12 molar fraction ×10^3 | solubility expressed as molar fraction ([1]; 1-octanol, 25 °C): 19.18 ± 0.67 molar fraction ×10^3 | solubility expressed as molar fraction ([1]; 1-octanol, 30 °C): 37.37 ± 1.24 molar fraction ×10^3 | solubility expressed as molar fraction ([1]; 1-octanol, 35 °C): 67.23 ± 2.91 molar fraction ×10^3 | solubility expressed as molar fraction ([1]; 1-octanol, 40 °C): 104.05 ± 0.71 molar fraction ×10^3 | solubility expressed as molar fraction ([1]; 1-pentanol, 25 °C): 19.66 ± 0.28 molar fraction ×10^3 | solubility expressed as molar fraction ([1]; 1-pentanol, 30 °C): 42.95 ± 1.59 molar fraction ×10^3 | solubility expressed as molar fraction ([1]; 1-pentanol, 35 °C): 77.44 ± 0.55 molar fraction ×10^3 | solubility expressed as molar fraction ([1]; 1-pentanol, 40 °C): 126.01 ± 7.64 molar fraction ×10^3 | solubility expressed as molar fraction ([1]; 1-propanol, 25 °C): 41.02 ± 0.72 molar fraction ×10^3 | solubility expressed as molar fraction ([1]; 1-propanol, 30 °C): 74.27 ± 2.42 molar fraction ×10^3 | solubility expressed as molar fraction ([1]; 1-propanol, 35 °C): 121.65 ± 5.97 molar fraction ×10^3 | solubility expressed as molar fraction ([1]; 1-propanol, 40 °C): 181.10 ± 4.99 molar fraction ×10^3 | solubility expressed as molar fraction ([1]; 2-propanol, 25 °C): 30.17 ± 0.60 molar fraction ×10^3 | solubility expressed as molar fraction ([1]; 2-propanol, 30 °C): 60.35 ± 1.81 molar fraction ×10^3 | solubility expressed as molar fraction ([1]; 2-propanol, 35 °C): 101.22 ± 4.59 molar fraction ×10^3 | solubility expressed as molar fraction ([1]; 2-propanol, 40 °C): 154.88 ± 5.76 molar fraction ×10^3 | solubility expressed as molar fraction ([1]; ethanol, 25 °C): 49.43 ± 2.59 molar fraction ×10^3 | solubility expressed as molar fraction ([1]; ethanol, 30 °C): 90.16 ± 5.57 molar fraction ×10^3 | solubility expressed as molar fraction ([1]; ethanol, 35 °C): 142.45 ± 5.12 molar fraction ×10^3 | solubility expressed as molar fraction ([1]; ethanol, 40 °C): 210.96 ± 6.24 molar fraction ×10^3 | solubility expressed as molar fraction ([1]; methanol, 25 °C): 77.01 ± 4.68 molar fraction ×10^3 | solubility expressed as molar fraction ([1]; methanol, 30 °C): 127.52 ± 5.07 molar fraction ×10^3 | solubility expressed as molar fraction ([1]; methanol, 35 °C): 196.63 ± 7.30 molar fraction ×10^3 | solubility expressed as molar fraction ([1]; methanol, 40 °C): 286.50 ± 6.20 molar fraction ×10^3
SMILES: O=c1ccc2ccccc2o1 [coumarin, 2H-1-benzopyran-2-one]
aqueous solubility [2]: decreases with the increase of pH
